# Measured values taken from patent publication US10856562B2, “Flavor composition and edible compositions containing same” (MARS, INCORPORATED, priority 2013, dated 2020).
# “Also recorded” adds a separate entry of the source. Square brackets hold non-standard residues; d marks the D form. Ends that are not written are not given here. pGlu = O=C1CC[C@@H](C(=O)O)N1
# Key:
# panelists = assay: Descriptive profile of umami enhancer UE-30 in solution, in-mouth (Example 5); type: in vivo, human; details: for Astringent, in-mouth perception / Bitter, in-mouth perception / Metallic, in-mouth perception / Mineral/Flinty, in-mouth perception / Numbing, in-mouth perception / Salt, in-mouth perception / Sour, in-mouth perception / Sweet, in-mouth perception / Umami FF, in-mouth perception / Umami/Brothy, in-mouth perception: mean score, 15-point scale
# Protocol: Descriptive attributes (e.g., taste, flavor and chemical feeling factors) of four use levels of a pGlu-Val-Cys (UE-30) flavor composition peptide was determined. The four use levels were as follows: 1.0 ppb, 10.0 ppb, 100.0 ppb and 1000.0 ppb.
# Data was collected for the attributes of the product in-mouth for the use levels according to the following protocol: • The samples were analyzed for flavor and aftertaste by six-nine members of a panel, trained and experienced in appearance, flavor and texture evaluation using the Spectrum™ method. Samples were evaluated across multiple panel sessions. • The strength of each attribute was rated on a 15-point scale, where 0=none and 15=very strong. • This scale incorporates the ability to use tenths of a point and therefore has the potential of 150 scale differentiations. • The scale may be expanded beyond 15 points to include extreme ratings if necessary. Attribute Perception Protocol • The panelists evaluated each sample using the following procedure • Descriptive Profiles (Flavor and Chemical Feeling Factors) of 4 levels of UE-30 (umami enhancer) • Individual data (1 replication) was collected for the flavor and chemical feeling factors of the product in-mouth Sample Preparation
# The 01, 10, 100 and 1000 ppb test samples of the flavor composition peptide was prepared in water as described in the table 19.
# The panelists evaluated each sample for the attributes described in table 20.
# [1] = Salty taste of NaCl-reduced potato chips with added peptide; type: in vivo; details: 50% salt reduction, 1150 ppb peptide
# Protocol: All Ingredients were added into a plastic container and mixed gently.
# Two batches of potato chips were made: a control with 100% NaCl (0.5 g) and a sample with 50% NaCl (0.25 g) and 1150 ppb pGlu-Val-Leu.
# A 1000 ppm stock of pGlu-Val-Leu in salt was made to be added to the potato chips.
# [2] = Salty taste of peanut butter with added peptide; type: in vivo; details: no salt reduction, 267 ppb peptide
# Protocol: All Ingredients were added into the mixing bowl and milled on the Retsch mill (model RM200) for a total of 30 minutes for two 15 minute intervals. After 15 minutes, the walls of the bowl were scraped with a spatula and then, milling was resumed.
# Three batches of peanut butter were made: a control with 100% NaCl (0.05 g), a sample with 100% NaCl (0.05 g) and 267 ppb pGlu-Val-Leu, and a sample with 50% NaCl reduction (0.025 g) and with 267 ppb pGlu-Val-Leu.
# A 1000 ppm stock of pGlu-Val-Leu in salt was made to be added to the peanut butter.
# panel of trained tasters = assay: Saltiness of 25% sodium-reduced food products with peptides, panel of trained tasters; type: in vivo, human; details: for Saltiness compared to control / Saltiness/flavor compared to control: 10 ppb each, n=4; for Saltiness/flavor compared to control: control 350 mg
# Protocol: Food product compositions were prepared by admixing flavor composition peptide(s) of the present application with food compositions, wherein the level of sodium (NaCl) in the food product compositions was reduced. The level of sodium was reduced by 25%, 50% or 75% compared to food products compositions that were not admixed with flavor composition peptides. The food product compositions comprising the flavor composition peptides were tasted by a panel of trained tasters and the level of saltiness was compared to the control food products.
# The peptides pGlu-Val-Leu (identified as “SE-13”), pGlu-Val-Cys (identified as “UE-30”), pGlu-Val-Val (identified as “SE-17”) and pGlu-Cys-Cys (identified as “FE-37”) were tested in cottage cheese, tortilla chips, ketchup, cream of mushroom soup, alfredo sauce, sausage, mixed nuts, peanuts, soy sauce and chicken broth. The level of sodium in the test food products comprising the peptides was reduced by 25% compared to the control food products.
# [3] = Salty taste of NaCl-reduced roasted chicken flavored rice with added peptide; type: in vivo; details: 50% NaCl reduction, 50 ppb peptide
# Protocol: All Ingredients, except the rice, were placed into a container and mixed. The mixture was heated in a microwave for a total of one minute for two 30 second intervals. The rice and mixture were then mixed in a bowl. The cooking bowl was placed into a rice cooker and the cook cycle was started. After 36 minutes the rice was mixed and then allowed to cook for the remaining time for a total time of 49 minutes.
# Three batches of rice were made: a control with 100% NaCl (4.7696 g), a sample with 50% NaCl (2.38 g), and the last sample had 50% NaCl (2.38 g) with 50 ppb of pGlu-Val-Leu.
# Three batches of rice were made: a control with 100% NaCl, a sample with 50% NaCl, and a sample that had 50% NaCl (2.38 g) with 50 ppb of pGlu-Val-Val.
# Two batches of rice were made: a control with 50% NaCl (2.38 g), and the other sample had 50% NaCl (2.38 g) with 50 ppb of pGlu-Val and 50 ppb of pGlu-Pro-Glu. Two stock solutions were made to be added to the rice: a 200 ppm stock solution of pGlu-Val in water and a 200 ppm stock solution of pGlu-Pro-Glu in water, as shown in table 44.
# Three batches of rice were made: a control with 100% NaCl (4.7696 g), a sample with 40% NaCl (1.9 g), and the last sample had 40% NaCl (1.9 g) with 1 ppb of pGlu-Val-Leu and 1 ppb of pGlu-Val-Cys. […]
# [4] = Chicken Broth, control 860 mg, test 645 mg Na
substance,measurement,setting,value
[pGlu]-Val-Cys [UE-30],"Astringent, in-mouth perception",panelists; 1.0 ppb in solution,0.0
same,"Bitter, in-mouth perception",panelists; 1.0 ppb in solution,0.0
same,"Metallic, in-mouth perception",panelists; 1.0 ppb in solution,0.0
same,"Mineral/Flinty, in-mouth perception",panelists; 1.0 ppb in solution,0.5
same,"Numbing, in-mouth perception",panelists; 1.0 ppb in solution,0.0
same,"Salt, in-mouth perception",panelists; 1.0 ppb in solution,1.9
same,"Sour, in-mouth perception",panelists; 1.0 ppb in solution,0.0
same,"Sweet, in-mouth perception",panelists; 1.0 ppb in solution,0.0
same,"Umami FF, in-mouth perception",panelists; 1.0 ppb in solution,0.5
same,"Umami/Brothy, in-mouth perception",panelists; 1.0 ppb in solution,0.7
same,"Level of the remaining aromatics, basic tastes and chemical feeling factors with increasing concentration","panelists; 1.0 to 1000.0 ppb, in-mouth",does not increase
same,Salt perception level as the concentration increases,"panelists; 1.0 to 1000.0 ppb, in-mouth",increases slightly; also recorded: Shows increases
same,Umami feeling factor as the concentration increases,"panelists; 1.0 to 1000.0 ppb, in-mouth",increases slightly; also recorded: Shows increases
same,Umami/brothy aromatic as the concentration increases,"panelists; 1.0 to 1000.0 ppb, in-mouth",increases slightly; also recorded: Shows increases
same,"Astringent, in-mouth perception",panelists; 10.0 ppb in solution,0.0
same,"Bitter, in-mouth perception",panelists; 10.0 ppb in solution,0.0
same,"Metallic, in-mouth perception",panelists; 10.0 ppb in solution,0.0
same,"Mineral/Flinty, in-mouth perception",panelists; 10.0 ppb in solution,0.7
same,"Numbing, in-mouth perception",panelists; 10.0 ppb in solution,0.0
same,"Salt, in-mouth perception",panelists; 10.0 ppb in solution,2.1
same,"Sour, in-mouth perception",panelists; 10.0 ppb in solution,0.0
same,"Sweet, in-mouth perception",panelists; 10.0 ppb in solution,0.0
same,"Umami FF, in-mouth perception",panelists; 10.0 ppb in solution,1.9
same,"Umami/Brothy, in-mouth perception",panelists; 10.0 ppb in solution,1.0
same,"Astringent, in-mouth perception",panelists; 100.0 ppb in solution,0.0
same,"Bitter, in-mouth perception",panelists; 100.0 ppb in solution,0.0
same,"Metallic, in-mouth perception",panelists; 100.0 ppb in solution,0.0
same,"Mineral/Flinty, in-mouth perception",panelists; 100.0 ppb in solution,0.7
same,"Numbing, in-mouth perception",panelists; 100.0 ppb in solution,0.0
same,"Salt, in-mouth perception",panelists; 100.0 ppb in solution,2.6
same,"Sour, in-mouth perception",panelists; 100.0 ppb in solution,0.0
same,"Sweet, in-mouth perception",panelists; 100.0 ppb in solution,0.0
same,"Umami FF, in-mouth perception",panelists; 100.0 ppb in solution,2.7
same,"Umami/Brothy, in-mouth perception",panelists; 100.0 ppb in solution,1.8
same,"Astringent, in-mouth perception",panelists; 1000.0 ppb in solution,0.0
same,"Bitter, in-mouth perception",panelists; 1000.0 ppb in solution,0.0
same,"Metallic, in-mouth perception",panelists; 1000.0 ppb in solution,0.0
same,"Mineral/Flinty, in-mouth perception",panelists; 1000.0 ppb in solution,0.6
same,"Numbing, in-mouth perception",panelists; 1000.0 ppb in solution,0.0
same,"Salt, in-mouth perception",panelists; 1000.0 ppb in solution,3.4
same,"Sour, in-mouth perception",panelists; 1000.0 ppb in solution,0.0
same,"Sweet, in-mouth perception",panelists; 1000.0 ppb in solution,0.0
same,"Umami FF, in-mouth perception",panelists; 1000.0 ppb in solution,3.5
same,"Umami/Brothy, in-mouth perception",panelists; 1000.0 ppb in solution,2.5
[pGlu]-Val-Leu [SE-13],Salty taste compared to control with 100% NaCl,[1],saltier than the control
same,Salty taste compared to control with 100% NaCl,[2],saltier than the control
same,Saltiness compared to control,panel of trained tasters; [4],Test samples saltier than
same,Saltiness/flavor compared to control,"panel of trained tasters; Cottage Cheese, test 262 mg Na",Test samples notably less
same,Saltiness compared to SE-17,"panel of trained tasters; Ketchup, test 120 mg Na",SE-13 more salty than
same,Saltiness compared to control,"panel of trained tasters; Tortilla Chips, control 103 mg, test 77 mg Na",Test samples saltier than
[pGlu]-Val-Val [SE-17],Saltiness compared to control,panel of trained tasters; [4],Test samples saltier than
same,Saltiness/flavor compared to control,"panel of trained tasters; Cottage Cheese, test 262 mg Na",Test samples notably less
same,Preference among test samples,"panel of trained tasters; Cottage Cheese, test 262 mg Na, compared to SE-13 and SE-13 + UE-30",combination preferred
same,Aftertaste,[3],had a salty aftertaste
